These results are taken from patent US8148347B2, “Inhibition of interaction of PSD93 and PSDS95 with nNOS and NMDA receptors” (The Johns Hopkins University, priority 2000, dated 2012).

One data set has as its system PSD-93/NMDA receptor. Kind of data set: GST fusion protein binding assay, GST-PSD-93 and NMDA receptors. The conditions noted are these: preincubation with different concentrations of halothane. Also noted: species or system rat. The source says: We utilized the yeast two-hybrid system to investigate the effects of halothane on protein interactions within the NMDA receptor signaling complex. The PDZ domain of nNOS or the C-terminus of NMDA receptor subunit 2B (NR2B) was fused in frame with the GAL4 DNA-binding domain in a yeast vector, pGBT9. The PDZ domain of PSD95 or PSD-93 was fused in frame with the GAL4 activation domain in another yeast vector, pGAD424. Both yeast vectors were co-transformed into the Y190 yeast strain, which was then grown in the absence or presence of halothane at clinically relevant concentrations. […] To confirm the yeast two-hybrid results, the GST fusion protein binding assay was performed. The GST-fusion proteins, consisting of the second PDZ domain of PSD-95 or PSD-93, were expressed in bacterial BL21 cells and purified using glutathione-coupled agarose. After preincubation with or without different concentrations of halothane, GST-PSD-95 or GST-PSD-93 was incubated with membrane proteins from rat hippocampus at room temperature for 1 h. After extensive washing, the bound proteins were eluted by boiling in 1×SDS-PAGE sample buffer and detected by immunoblotting.

A further data set concerns the target T1, PSD-95/NMDA receptor (Rattus norvegicus, UniProt P31016).
T1 construct: The GST-fusion proteins, consisting of the second PDZ domain of PSD-95 or PSD-93; made in house; host or cells: bacterial BL21 cells (GST fusion); partner from rat hippocampal membranes
Kind of data set: GST fusion protein binding assay, GST-PSD-95 and NMDA receptors. The conditions noted are these: preincubation with different concentrations of halothane. The source says: (§1) We utilized the yeast two-hybrid system to investigate the effects of halothane on protein interactions within the NMDA receptor signaling complex. The PDZ domain of nNOS or the C-terminus of NMDA receptor subunit 2B (NR2B) was fused in frame with the GAL4 DNA-binding domain in a yeast vector, pGBT9. The PDZ domain of PSD95 or PSD-93 was fused in frame with the GAL4 activation domain in another yeast vector, pGAD424. Both yeast vectors were co-transformed into the Y190 yeast strain, which was then grown in the absence or presence of halothane at clinically relevant concentrations. Protein-protein interactions were confirmed by both yeast growth on −Leu/−Trp/−His (−LTH) medium and lacz expression. To confirm the yeast two-hybrid results, the GST fusion protein binding assay was performed. The GST-fusion proteins, consisting of the second PDZ domain of PSD-95 or PSD-93, were expressed in bacterial BL21 cells and purified using glutathione-coupled agarose. After preincubation with or without different concentrations of halothane, GST-PSD-95 or GST-PSD-93 was incubated with membrane proteins from rat hippocampus at room temperature for 1 h. After extensive washing, the bound proteins were eluted by boiling in 1×SDS-PAGE sample buffer and detected by immunoblotting.

Data set [1] deals with PSD-93/nNOS. Kind of data set: yeast two-hybrid growth in −LTH medium, pGAD424-PSD-93 and pGBT9-nNOS. In kind it is cell-based.
Excerpt: as §1

The subject of data set [2] is PSD-95/NMDA receptor subunit 2B (NR2B). Kind of data set: yeast two-hybrid growth in −LTH medium, pGAD424-PSD-95 and pGBT9-2B. It counts as cell-based.
Excerpt: as §1

Data set [3] relates to PSD-93/nNOS. Kind of data set: GST fusion protein binding assay, GST-PSD-93 and nNOS. Further details: species or system rat. The conditions noted are these: preincubation with different concentrations of halothane.
Excerpt: as §1

The next data set deals with Y190 yeast strain. Put plainly: yeast growth in −LT media (cytotoxicity control). It counts as cell-based. The conditions noted are these: high halothane concentration (3.6%).
Excerpt: Under normal conditions, PSD-95 interacts with nNOS, resulting in good growth of the yeast carrying pGAD424-PSD-95 and pGBT9-nNOS in −LTH medium. […] Rather, the failure of yeast to grow in −LTH media in the presence of halothane must be due to disruption of protein-protein interactions by halothane. […] These findings confirm the yeast two-hybrid results.
as §1, with “The GST-fusion proteins, consisting of the second PDZ domain of PSD-95 or PSD-93, were expressed in bacterial BL21 cells and purified using glutathione-coupled agarose. After preincubation with or without different concentrations of halothane, GST-PSD-95 or GST-PSD-93 was incubated with membrane proteins from rat hippocampus at room temperature for 1 h.” left out

Data set [4] has as its system PSD-95/nNOS. Put plainly: yeast two-hybrid growth in −LTH medium, pGAD424-PSD-95 and pGBT9-nNOS. In kind it is cell-based.
Excerpt: as §1

Data set [5] concerns the target T2, PSD-95/nNOS (Rattus norvegicus, UniProt P31016).
T2 construct: The GST-fusion proteins, consisting of the second PDZ domain of PSD-95 or PSD-93; made in house; host or cells: bacterial BL21 cells (GST fusion); partner from rat hippocampal membranes
Kind of data set: GST fusion protein binding assay, GST-PSD-95 and nNOS. The conditions noted are these: preincubation with different concentrations of halothane.
Excerpt: as §1

Data set [6] concerns PSD-93/NMDA receptor subunit 2B (NR2B). Put plainly: yeast two-hybrid growth in −LTH medium, pGAD424-PSD-93 and pGBT9-2B. It counts as cell-based.
Excerpt: as §1

Entries after “also recorded” stand apart in the source; their conditions may differ.

T2 sequence (P31016 160-246 limits assumed): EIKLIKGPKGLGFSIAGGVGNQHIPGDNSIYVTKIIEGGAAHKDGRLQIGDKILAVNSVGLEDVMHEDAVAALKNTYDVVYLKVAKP
T1 sequence (P31016 160-246 limits assumed): as above

For the molecule `FC(F)(F)C(Cl)Br` (centres unmarked) [halothane], the “binding of GST-fusion PSD-93 to rat brain NMDA receptors” value with PSD-93/NMDA receptor is on record as “blocks; also recorded: dose-dependently inhibited”. Further, on PSD-95/NMDA receptor, the “binding of GST-fusion PSD-95 to rat brain NMDA receptors” value is given as “blocks; also recorded: dose-dependently inhibited”. In addition, the “growth of the yeast in −LTH media” value is “inhibited by halothane in a similar way” with PSD-93/nNOS [1], “A similar phenomenon was observed” in data set [2], “dose-dependently inhibited” in the data set on PSD-95/nNOS [4] (dose dependence) and “inhibited by halothane in a similar way” in [6]. Also, the “binding of GST-fusion PSD-93 to nNOS” value in the data set with PSD-93/nNOS [3] is reported as “blocks; also recorded: dose-dependently inhibited”. The “yeast growth in −LT media” value with Y190 yeast strain is listed as “growth did not differ from yeast grown without halothane”. For the same molecule, in the data set on PSD-95/nNOS [4] (high concentration (1.3%)), the “yeast growth in −LTH media” value was “completely inhibited yeast growth”. For the same molecule, the “growth of yeast clones in −LTH media” value in the data set on PSD-95/nNOS [4] (low halothane concentrations (0.4%-0.7%)) is listed as “slowed the growth”. Besides, at PSD-95/nNOS [5], the “binding of GST-fusion PSD-95 to nNOS” value was “blocks; also recorded: dose-dependently inhibited”.
